This is an account of results in patent publication US10722515B2, “Dual CLK/CDK1 inhibitors for cancer treatment” (SRI INTERNATIONAL, priority 2016, dated 2020).

Read-outs that look alike come from different tables or passages of the source. Some results are limits rather than exact numbers.

By IC50 is commonly meant the concentration at which inhibition is half-maximal.

Assay [1] relates to SK-MEL-2/Luc-MDM2 cells (MDM2-Luc exon-skipping reporter). The experiment in a line: cell-based MDM2-Luc exon-skipping reporter assay. The following applies: for activity in the MDM2-Luc assay: at 10 μM; for MDM2/Luc: luciferase activation vs DMSO control, average of three experiments; for MDM2-Luc activity: result in words, no concentration stated. In general terms: In a reporter assay the amount or activity of a reporter protein is the signal.

The next assay addresses T1, CDK6/cyclinD3(h) (Homo sapiens, UniProt Q00534).
T1 construct: purchased Eurofins, Dundee, Scotland
The experiment in a line: radiometric protein kinase assay, CDK6. To be noted: enzyme inhibition, ATP 20 μM. In kind it is biochemical. As to the method:
(§1) Enzymatic biochemical activities were evaluated in radiometric protein kinase assays (Eurofins, Dundee, Scotland). Kinases are incubated with buffer, substrate and [γ-^33P]-ATP (specific activity approx. 500 cpm/pmol, concentration as required). The reaction is initiated by the addition of the MgATP mix. After incubation for 40 minutes at room temperature, the reaction is stopped by the addition of 3% phosphoric acid solution. 10 μL of the reaction is then spotted onto a P30 filtermat and washed three times for 5 minutes in 75 mM phosphoric acid and once in methanol prior to drying and scintillation counting.
(§2) All compounds are prepared to 50× final assay concentration in 100% DMSO. Positive control wells contain all components of the reaction with 2% DMSO. Blank wells contain all components of the reaction, with a reference inhibitor replacing the compound of interest. Each kinase is assigned a standard assay concentration of ATP within 20 μM of its apparent KM. Compounds were screened at 1 μM in duplicate or tested at 10 concentrations at half log dilution starting from 10 μM in singlicate. Dose response curves were fitted with four parameter logistic curve to obtain IC50 values. The average coefficient of variation (CV) of the conducted assay is 4.4%.

Another assay has as its target T2, CLK4(h) (Homo sapiens, UniProt Q9HAZ1).
T2 construct: purchased Eurofins, Dundee, Scotland
Briefly: radiometric protein kinase assay, CLK4. It counts as biochemical. The following applies: enzyme inhibition, ATP 10 μM. On the procedure:
as §1, §2

Another assay has as its target T3, CLK3(h) (Homo sapiens, UniProt P49761).
T3 construct: purchased Eurofins, Dundee, Scotland
The experiment in a line: radiometric protein kinase assay, CLK3. In kind it is biochemical. As to the method: as §1, §2

In a further assay the target is T4, CLK1(h) (Homo sapiens, UniProt P49759).
T4 construct: purchased Eurofins, Dundee, Scotland
Briefly: radiometric protein kinase assay, CLK1. The following applies: enzyme inhibition, radiometric, ATP 10 μM; read-out: IC50 (nM) CLK1. In kind it is biochemical. On the procedure:
as §1, §2

A further assay has as its target T5, CDK4/cyclinD3(h) (Homo sapiens, UniProt P11802).
T5 construct: purchased Eurofins, Dundee, Scotland
Briefly: radiometric protein kinase assay, CDK4. In kind it is biochemical. The following applies: enzyme inhibition, ATP 20 μM. On the procedure:
as §1, §2

The target of another assay is T6, CLK2(h) (Homo sapiens, UniProt P49760).
T6 construct: purchased Eurofins, Dundee, Scotland
The experiment in a line: radiometric protein kinase assay, CLK2. In kind it is biochemical. The following applies: enzyme inhibition, ATP 10 μM. As to the method:
as §1, §2

The target of the next assay is T7, CDK1/cyclinB(h) (Homo sapiens, UniProt P06493).
T7 construct: purchased Eurofins, Dundee, Scotland
The experiment in a line: radiometric protein kinase assay, CDK1. In kind it is biochemical. To be noted: enzyme inhibition, ATP 45 μM. As to the method: as §1, §2

The mark [2] stands for this setting: enzyme inhibition, radiometric, ATP 90 μM, read-out: IC50 (nM) CLK3.

T6 sequence (P49760 whole entry): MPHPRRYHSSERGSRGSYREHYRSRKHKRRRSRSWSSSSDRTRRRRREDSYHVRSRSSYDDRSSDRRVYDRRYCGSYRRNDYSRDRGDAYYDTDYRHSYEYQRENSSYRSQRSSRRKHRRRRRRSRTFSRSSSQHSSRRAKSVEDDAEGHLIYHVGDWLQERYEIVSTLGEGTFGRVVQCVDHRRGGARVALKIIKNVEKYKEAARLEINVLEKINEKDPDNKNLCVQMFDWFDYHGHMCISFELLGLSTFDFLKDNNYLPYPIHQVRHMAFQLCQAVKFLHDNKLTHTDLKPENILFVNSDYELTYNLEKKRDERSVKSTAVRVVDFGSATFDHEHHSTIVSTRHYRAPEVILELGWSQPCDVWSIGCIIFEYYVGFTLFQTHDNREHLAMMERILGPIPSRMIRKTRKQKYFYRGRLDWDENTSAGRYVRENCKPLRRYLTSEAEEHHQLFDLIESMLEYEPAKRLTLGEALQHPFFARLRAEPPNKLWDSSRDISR
T3 sequence (P49761 whole entry): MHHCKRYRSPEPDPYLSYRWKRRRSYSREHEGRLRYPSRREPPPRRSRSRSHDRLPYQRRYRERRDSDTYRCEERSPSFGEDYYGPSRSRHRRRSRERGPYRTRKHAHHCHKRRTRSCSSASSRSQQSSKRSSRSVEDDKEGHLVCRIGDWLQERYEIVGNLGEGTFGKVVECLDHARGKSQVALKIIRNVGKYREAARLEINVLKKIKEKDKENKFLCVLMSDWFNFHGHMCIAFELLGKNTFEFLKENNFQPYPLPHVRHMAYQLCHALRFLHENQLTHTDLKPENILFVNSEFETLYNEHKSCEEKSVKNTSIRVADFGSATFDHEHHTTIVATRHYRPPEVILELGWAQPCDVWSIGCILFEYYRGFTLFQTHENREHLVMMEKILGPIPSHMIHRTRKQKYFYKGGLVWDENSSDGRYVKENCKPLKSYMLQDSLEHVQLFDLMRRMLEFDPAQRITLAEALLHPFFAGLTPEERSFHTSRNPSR
T5 sequence (P11802 whole entry): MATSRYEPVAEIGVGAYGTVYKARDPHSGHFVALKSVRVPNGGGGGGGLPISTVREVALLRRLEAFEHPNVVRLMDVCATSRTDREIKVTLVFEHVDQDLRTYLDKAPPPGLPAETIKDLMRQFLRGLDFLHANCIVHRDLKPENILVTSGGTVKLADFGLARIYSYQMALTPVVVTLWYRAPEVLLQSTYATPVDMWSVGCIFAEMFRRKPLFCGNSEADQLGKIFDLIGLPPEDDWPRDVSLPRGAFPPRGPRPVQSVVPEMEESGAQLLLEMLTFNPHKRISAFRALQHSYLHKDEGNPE
T5 sequence (P30281 whole entry partner): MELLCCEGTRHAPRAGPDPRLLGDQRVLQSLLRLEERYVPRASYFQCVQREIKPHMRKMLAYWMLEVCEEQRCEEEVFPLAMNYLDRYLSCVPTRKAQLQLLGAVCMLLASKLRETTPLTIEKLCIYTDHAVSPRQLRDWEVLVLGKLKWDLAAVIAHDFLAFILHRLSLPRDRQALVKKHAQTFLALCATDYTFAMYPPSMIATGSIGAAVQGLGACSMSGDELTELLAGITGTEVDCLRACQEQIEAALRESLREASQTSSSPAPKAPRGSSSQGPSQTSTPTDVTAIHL
T2 sequence (Q9HAZ1 whole entry): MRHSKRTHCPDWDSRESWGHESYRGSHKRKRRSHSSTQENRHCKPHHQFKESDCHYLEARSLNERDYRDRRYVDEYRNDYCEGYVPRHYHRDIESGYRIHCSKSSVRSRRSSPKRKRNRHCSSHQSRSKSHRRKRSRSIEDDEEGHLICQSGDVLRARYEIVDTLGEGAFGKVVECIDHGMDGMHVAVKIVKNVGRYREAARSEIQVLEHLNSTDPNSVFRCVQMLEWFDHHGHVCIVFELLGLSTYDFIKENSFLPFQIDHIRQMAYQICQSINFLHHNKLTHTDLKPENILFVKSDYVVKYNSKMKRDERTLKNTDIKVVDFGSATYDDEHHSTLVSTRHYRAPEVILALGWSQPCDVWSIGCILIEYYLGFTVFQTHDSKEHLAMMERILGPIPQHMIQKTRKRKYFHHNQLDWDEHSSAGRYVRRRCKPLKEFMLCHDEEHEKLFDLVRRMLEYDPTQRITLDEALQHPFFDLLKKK
T4 sequence (P49759 whole entry): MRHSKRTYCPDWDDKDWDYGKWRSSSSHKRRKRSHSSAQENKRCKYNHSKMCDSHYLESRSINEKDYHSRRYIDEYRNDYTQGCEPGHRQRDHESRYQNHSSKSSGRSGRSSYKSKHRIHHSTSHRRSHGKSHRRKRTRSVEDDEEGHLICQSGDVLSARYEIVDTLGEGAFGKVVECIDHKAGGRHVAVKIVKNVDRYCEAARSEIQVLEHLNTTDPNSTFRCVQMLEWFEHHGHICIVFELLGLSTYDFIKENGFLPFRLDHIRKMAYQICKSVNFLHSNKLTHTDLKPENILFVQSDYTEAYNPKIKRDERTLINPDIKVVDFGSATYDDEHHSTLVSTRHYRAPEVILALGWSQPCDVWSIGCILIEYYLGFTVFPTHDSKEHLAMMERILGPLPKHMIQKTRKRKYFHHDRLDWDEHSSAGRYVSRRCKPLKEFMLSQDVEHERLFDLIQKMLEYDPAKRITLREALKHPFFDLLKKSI
T1 sequence (Q00534 whole entry): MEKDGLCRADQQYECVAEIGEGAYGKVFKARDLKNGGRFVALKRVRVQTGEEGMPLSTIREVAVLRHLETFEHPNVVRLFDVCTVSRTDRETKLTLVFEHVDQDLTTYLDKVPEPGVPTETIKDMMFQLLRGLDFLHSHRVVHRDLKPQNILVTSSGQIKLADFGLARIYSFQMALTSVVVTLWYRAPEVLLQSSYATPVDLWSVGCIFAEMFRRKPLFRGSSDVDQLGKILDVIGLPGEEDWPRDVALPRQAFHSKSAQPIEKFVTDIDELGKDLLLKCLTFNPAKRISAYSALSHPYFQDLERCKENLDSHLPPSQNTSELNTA
T1 sequence (P30281 whole entry partner): as the sequence (P30281 whole entry partner) above
T7 sequence (P06493 whole entry): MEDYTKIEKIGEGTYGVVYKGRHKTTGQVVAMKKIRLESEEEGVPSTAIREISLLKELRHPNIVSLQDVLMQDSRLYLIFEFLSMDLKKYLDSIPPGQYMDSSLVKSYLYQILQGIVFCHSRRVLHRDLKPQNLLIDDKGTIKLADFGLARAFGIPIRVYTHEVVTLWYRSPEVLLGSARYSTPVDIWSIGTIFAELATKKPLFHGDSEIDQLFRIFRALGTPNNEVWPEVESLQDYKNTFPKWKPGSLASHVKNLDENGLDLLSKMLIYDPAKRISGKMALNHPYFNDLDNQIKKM
T7 sequence (P14635 whole entry partner): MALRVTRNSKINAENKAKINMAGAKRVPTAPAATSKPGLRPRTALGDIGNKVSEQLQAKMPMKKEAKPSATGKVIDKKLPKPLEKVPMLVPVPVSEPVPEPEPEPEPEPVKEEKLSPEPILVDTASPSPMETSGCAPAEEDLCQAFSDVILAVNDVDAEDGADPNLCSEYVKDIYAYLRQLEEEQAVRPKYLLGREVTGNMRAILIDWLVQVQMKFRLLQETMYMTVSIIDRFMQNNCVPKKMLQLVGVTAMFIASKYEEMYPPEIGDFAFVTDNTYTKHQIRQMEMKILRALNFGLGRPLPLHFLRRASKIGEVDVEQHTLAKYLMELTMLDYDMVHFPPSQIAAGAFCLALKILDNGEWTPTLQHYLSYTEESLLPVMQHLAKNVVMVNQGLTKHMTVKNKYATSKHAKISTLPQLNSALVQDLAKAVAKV

As for `CC(C)n1ccc2c(Nc3cccc(Cl)c3)nc(NC3CCCCC3N)nc21` (racemic) [Compound 11, Racemic-N^2-Cis((2-Aminocyclohexyl)-N^4-(3-Chlorophenyl)-7-Isopropyl-7H-Pyrrolo[2,3-D]Pyrimidine-2,4-Diamine], the “activity in the MDM2-Luc assay” value in assay [1] is reported as “completely abrogated all activity”.

For the compound `CCn1cnc2c(Nc3cccc(Cl)c3)nc(NC3CCCCC3NC(C)=O)nc21` (racemic) [Compound 12, Racemic N-Cis(2-((6-((3-Chlorophenyl)Amino)-9-Ethyl-9H-Purin-2-Yl)Amino)Cyclohexyl) Acetamide], the “activity in the MDM2-Luc assay” value in assay [1] was “completely abrogated all activity”.

Take `CCn1cnc2c(Nc3cccc(Cl)c3)nc(N[C@@H]3CCCC[C@H]3N)nc21` [Compound 5, N-((1R,2R)-2-Aminocyclohexyl)-V-(3-Chlorophenyl)-9-Ethyl-9H-Purine-2,6-Diamine]: the IC50 on CDK6/cyclinD3(h) is more than 1000 nM; against CLK4(h), more than 1000 nM; against CLK3(h), more than 1000 nM; on CLK1(h) it was 868 nM; at CDK4/cyclinD3(h) it was more than 1000 nM; against CLK2(h), 498 nM. The compound also yielded a half-inhibitory concentration (IC50) against CDK1/cyclinB(h) of 546 nM. Moreover, the MDM2/Luc entry in assay [1] is listed as “Active”.

Consider `CCn1cnc2c(Nc3cccc(Cl)c3)nc(N[C@H]3CCCC[C@@H]3N)nc21` [Compound 6, N^2-((1 S,2S)-2-Aminocyclohexyl)-V-(3-Chlorophenyl)-9-Ethyl-9H-Purine-2,6-Diamine], for which the IC50 on CDK6/cyclinD3(h) was more than 1000 nM; at CLK4(h), 498 nM; at CLK3(h), more than 1000 nM; at CLK1(h), 371 nM; against CDK4/cyclinD3(h), more than 1000 nM; at CLK2(h) it was 190 nM. Besides, on CDK1/cyclinB(h), the IC50 was more than 1000 nM. In addition, in assay [1], the MDM2/Luc entry was “Active”.

Take `CC(C)n1cnc2c(Nc3cccc(Cl)c3)nc(N[C@@H]3CCCC[C@H]3N)nc21` [Compound 7, N-((1R,2R)-2-Aminocyclohexyl)-N^6-(3-Chlorophenyl)-9-Isopropyl-9H-Purine-2,6-Diamine]: the IC50 against CDK6/cyclinD3(h) is more than 1000 nM; on CLK4(h), 634 nM; at CLK3(h) (setting [2]), more than 1000 nM; on CLK1(h), 400 nM; on CDK4/cyclinD3(h), more than 1000 nM; against CLK2(h) it was 120 nM. This compound also displayed an IC50 against CDK1/cyclinB(h) of more than 1000 nM. The MDM2/Luc result in assay [1] is given as “Active”.

Regarding `COCCNc1nc(Nc2cccc(Cl)c2)c2ncn(C(C)C)c2n1` [Compound 13, N^6-(3-Chlorophenyl)-9-Isopropyl-N^2-(2-Methoxyethyl)-9H-Purine-2,6-Diamine], the MDM2-Luc activity entry in assay [1] was “dramatically reduced activity”.

Regarding `CC(C)n1cnc2c(Nc3cc(N)cc(Cl)c3)nc(N[C@@H]3CCCC[C@@H]3N)nc21` [Compound 16, 1V-(3-Amino-5-Chlorophenyl)-N-((1R,2S)-2-Aminocyclohexyl)-9-Isopropyl-9H-Purine-2,6-Diamine], the IC50 against CLK4(h) was found to be 25 nM; at CLK1(h), 17 nM; at CLK2(h), 6 nM.

For the compound `CC(C)n1cnc2c(Nc3cc(N)cc(Cl)c3)nc(N[C@H]3CCCC[C@H]3N)nc21` [Compound 17, N^6-(3-Amino-5-Chlorophenyl)-N^2-((1 S,2R)-2-Aminocyclohexyl)-9-Isopropyl-9H-Purine-2,6-Diamine], the IC50 is more than 1000 nM against CDK6/cyclinD3(h); 28 nM against CLK4(h); more than 1000 nM at CLK3(h) (setting [2]); 21 nM at CLK1(h); more than 1000 nM at CDK4/cyclinD3(h); 26 nM against CLK2(h). Also, on CDK1/cyclinB(h), the IC50 is more than 1000 nM.

Consider `CC(=O)Nc1cc(Cl)cc(Nc2nc(N[C@@H]3CCCC[C@@H]3N)nc3c2ncn3C(C)C)c1` [Compound 18, N-(3-((2-(((1R,2S)-2-Aminocyclohexyl)Amino)-9-Isopropyl-9H-Purin-6-Yl)Amino)-5-Chlorophenyl)Acetamide], for which the IC50 at CDK6/cyclinD3(h) is more than 1000 nM; against CLK4(h), 30 nM; on CLK3(h) (setting [2]) it was more than 1000 nM; at CLK1(h), 19 nM; against CDK4/cyclinD3(h) it was 611 nM; on CLK2(h), 7 nM. This compound also came in with an IC50 against CDK1/cyclinB(h) of more than 1000 nM.

In the case of `CC(=O)Nc1cc(Cl)cc(Nc2nc(N[C@H]3CCCC[C@H]3N)nc3c2ncn3C(C)C)c1` [Compound 19, N-(3-((2-(((1S,2R)-2-Aminocyclohexyl)Amino)-9-Isopropyl-9H-Purin-6-Yl)Amino)-5-Chlorophenyl)Acetamide], the IC50 is more than 1000 nM on CDK6/cyclinD3(h); 31 nM on CLK4(h); more than 1000 nM on CLK3(h) (setting [2]); 26 nM at CLK1(h); more than 1000 nM at CDK4/cyclinD3(h); 17 nM against CLK2(h). Also, the IC50 on CDK1/cyclinB(h) is more than 1000 nM.

For `CC(C)n1cnc2c(Nc3cc(N)cc(Cl)c3)nc(N[C@H]3CCCC[C@@H]3N)nc21` [Compound 20, 1V-(3-Amino-5-Chlorophenyl)-M-((1 S,2S)-2-Aminocyclohexyl)-9-Isopropyl-9H-Purine-2,6-Diamine], the IC50 against CDK6/cyclinD3(h) is more than 1000 nM; against CLK4(h), 124 nM; on CLK3(h) (setting [2]), more than 1000 nM; on CLK1(h) it was 56 nM; at CDK4/cyclinD3(h), more than 1000 nM; against CLK2(h), 14 nM. At CDK1/cyclinB(h), this compound yielded an IC50 of more than 1000 nM.

In the case of `CC(C)n1cnc2c(Nc3cc(N)cc(Cl)c3)nc(N[C@@H]3CCCC[C@H]3N)nc21` [Compound 21, N^6-(3-Amino-5-Chlorophenyl)-N-((1R,2R)-2-Aminocyclohexyl)-9-Isopropyl-9H-Purine-2,6-Diamine], the IC50 was more than 1000 nM at CDK6/cyclinD3(h); 648 nM on CLK4(h); more than 1000 nM on CLK3(h) (setting [2]); 274 nM on CLK1(h); more than 1000 nM on CDK4/cyclinD3(h); 163 nM against CLK2(h). The IC50 against CDK1/cyclinB(h) is more than 1000 nM.

Regarding `CC(C)n1cnc2c(Nc3cc(N)cc(Cl)c3)nc(N[C@H]3CCCNC3)nc21` [Compound 22, (S)—N^6-(3-Amino-5-Chlorophenyl)-9-Isopropyl-N^2-(Piperidin-3-Yl)-9H-Purine-2,6-Diamine], the IC50 at CDK6/cyclinD3(h) is more than 1000 nM; against CLK4(h), 61 nM; on CLK3(h) (setting [2]), more than 1000 nM; on CLK1(h) it was 31 nM; on CDK4/cyclinD3(h), more than 1000 nM; against CLK2(h), 26 nM. The compound further displayed an IC50 against CDK1/cyclinB(h) of more than 1000 nM.

With `CC(C)n1cnc2c(Nc3cc(N)cc(Cl)c3)nc(N[C@@H]3CCCNC3)nc21` [Compound 23, (R)—N^6-(3-Amino-5-Chlorophenyl)-9-Isopropyl-N^2-(Piperidin-3-Yl)-9H-Purine-2,6-Diamine], the IC50 on CDK6/cyclinD3(h) was more than 1000 nM; against CLK4(h), 102 nM; on CLK3(h) (setting [2]), more than 1000 nM; at CLK1(h) it was 66 nM; at CDK4/cyclinD3(h), more than 1000 nM; on CLK2(h) it was 34 nM. This compound also showed an IC50 against CDK1/cyclinB(h) of more than 1000 nM.

Regarding `CC(C)n1cnc2c(Nc3cc(N)cc(Cl)c3)nc(N[C@H]3CCNC3)nc21` [Compound 24, (S)—N^6-(3-Amino-5-Chlorophenyl)-9-Isopropyl-N^2-(Pyrrolidin-3-Yl)-9-Purine-2,6-Diamine], the IC50 at CDK6/cyclinD3(h) is more than 1000 nM; at CLK4(h), 77 nM; at CLK3(h) (setting [2]), more than 1000 nM; at CLK1(h) it was 71 nM; against CDK4/cyclinD3(h), more than 1000 nM; against CLK2(h) it was 28 nM. The same compound returned an IC50 against CDK1/cyclinB(h) of more than 1000 nM.

`CC(C)n1cnc2c(Nc3cc(N)cc(Cl)c3)nc(N[C@@H]3CCNC3)nc21` [Compound 25, (R)—N^6-(3-Amino-5-Chlorophenyl)-9-Isopropyl-N^2-(Pyrrolidin-3-Yl)-9H-Purine-2,6-Diamine]: the IC50 against CDK6/cyclinD3(h) was more than 1000 nM; against CLK4(h), 299 nM; at CLK3(h) (setting [2]) it was more than 1000 nM; on CLK1(h) it was 118 nM; on CDK4/cyclinD3(h), more than 1000 nM; on CLK2(h) it was 92 nM. On CDK1/cyclinB(h), this compound returned an IC50 of more than 1000 nM.

Consider `CCOC(=O)c1c(/C(C#N)=C\N)c2ccc(Cl)c(Cl)c2n1C` [KH-CB19, reference compound], for which the MDM2-Luc activity result in assay [1] is “modest activity”.

Take `O=C(Nc1cc(C(F)(F)F)ccc1N1CCCCC1)c1ccncc1` [SRPIN340, reference compound]: the “activity in the MDM2-Luc assay” value in assay [1] is “inactive”.

With `CCc1cnn2c(NCc3ccc[n+]([O-])c3)cc(N3CCCC[C@H]3CCO)nc12` [dinaciclib, reference compound], the “activity in the MDM2-Luc assay” value in assay [1] is “inactive”.
